Experiments:
[1] = test system: PANC-1 (human pancreatic carcinoma) cells; assay: Impedance-based viability assay (xCELLigence SP), long treatment; type: cell-based; settings: 72 h, read-out: cytotoxicity expressed in IC50, PANC-1
From the text: (Gibco®/Invitrogen Corporation, New York, NY, USA).
Data obtained from each experiment represent mathematical averages.

[2] = test system: A549 lung carcinoma cell line; assay: CellTiter-Glo IC50 (Example 19); type: cell-based; settings: Homo sapiens, 72 h
Outline: (§1)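 Following treatment of 1000-cell/well cultures at 37° C, 5% CO2, CellTiter-Glo replaced the medium and luminescence was recorded. Data normalised to untreated controls; IC50 by variable-slope regression.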

[3] = test system: BxPC3 pancreatic cancer cell line; assay: CellTiter-Glo IC50 (Example 19); type: cell-based; settings: Homo sapiens, BXPC-3, 72 h
Outline: as §1

[4] = test system: H1993 lung carcinoma cell line; assay: CellTiter-Glo IC50 (Example 19); type: cell-based; settings: Homo sapiens, NCI-H1993, 72 h
Outline: as §1

[5] = test system: H520 lung carcinoma cell line; assay: CellTiter-Glo IC50 (Example 19); type: cell-based; settings: Homo sapiens, NCI-H520, 72 h
Outline: as §1

[6] = test system: HCC827 lung carcinoma cell line; assay: CellTiter-Glo IC50 (Example 19); type: cell-based; settings: Homo sapiens, 72 h
Outline: as §1

[7] = test system: LNCap human prostate cancer cell line; assay: CellTiter-Glo IC50 (Example 19); type: cell-based; settings: 72 h
Outline: as §1

[8] = test system: MiaPaCa2 pancreatic cancer cell line; assay: CellTiter-Glo IC50 (Example 19); type: cell-based; settings: Homo sapiens, MIA PaCa-2, 72 h
Outline: as §1

[9] = test system: PC3 human prostate cancer cell line; assay: CellTiter-Glo IC50 (Example 19); type: cell-based; settings: 72 h
Outline: as §1

[10] = test system: MDA-MB-231 breast cancer cell line; assay: CellTiter-Glo IC50 (Table 3); type: cell-based; settings: Homo sapiens
Outline: as §1

[11] = test system: MDA-MB-453 breast cancer cell line; assay: CellTiter-Glo IC50 (Table 3); type: cell-based; settings: Homo sapiens
Outline: as §1

[12] = test system: Detroit 562 (pharynx, carcinoma) cells; assay: Cell viability assay, CellTiter-Glo (Example 21); type: cell-based, human; settings: 72 h treatment
Outline: (§2)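 Cells were seeded at optimized densities (Panc-1 750, FaDu 1000, Detroit 562 and MDA-MB-453 1500 cells/well), then treated with compound. Viability was read by CellTiter-Glo luminescence. Dose-response curves were fitted by four-parameter variable-slope non-linear regression.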

[13] = test system: EBC-1 (lung, squamous cell carcinoma) cells; assay: Cell viability assay, CellTiter-Glo (Example 21); type: cell-based, human; settings: 72 h treatment
Outline: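 The CellTiter-Glo luminescent cell viability assay (Promega) was used to test compound effects on EBC-1 cells. Cells were plated at 1000 cells/well on white flat-bottom 96 well plates, treated, then read for luminescence on a microplate reader. Dose-response curves were fitted by four-parameter variable-slope non-linear regression.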

[14] = test system: FaDu (pharynx, squamous cell carcinoma) cells; assay: Cell viability assay, CellTiter-Glo (Example 21); type: cell-based, human; settings: 72 h treatment
Outline: as §2

[15] = test system: LNCaP (prostate, carcinoma) cells; assay: Cell viability assay, CellTiter-Glo (Example 21); type: cell-based, human; settings: 72 h
Outline: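 Flat-bottomed white 96 well plates received 1500 LNCaP cells per well, a density chosen to suit the cells' size and growth rate. Following compound treatment, viability was measured by CellTiter-Glo® luminescence per the manufacturer's protocol, with signal recorded on a BioTek Synergy 2 reader. GraphPad Prism 8.4.2 generated dose-response curves using a four-parameter, variable-slope non-linear regression model.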

[16] = test system: Panc-1 (pancreas, carcinoma) cells; assay: Cell viability assay, CellTiter-Glo (Example 21); type: cell-based, human; settings: 72 h treatment
Outline: as §2

[17] = test system: representative cell lines; assay: Cytotoxicity on representative cell lines (summary statement); type: cell-based; settings: Homo sapiens; summary range, ca.

O=C1C2=C(CCN(Cc3cc(F)cc(F)c3)C2)N2CCN=C2N1Cc1ccc(F)cc1 [I/7, 4-(4-Fluorobenzyl)-7-(3,5-difluorobenzyl)-2,4,6,7,8,9-hexahydroimidazo[1,2-a]pyrido[3,4-e]pyrimidin-5(1H)-one]
IC50 [1]: 8 nM | IC50 [2]: 8 nM | IC50 [3]: 12 nM | IC50 [4]: 10 nM | IC50 [5]: 7 nM | IC50 [6]: 13 nM | IC50 [7]: 5 nM | IC50 [8]: 11 nM | IC50 [9]: 9 nM | IC50 [10]: 2 nM | IC50 [11]: 1 nM | Detroit 562 (pharynx, carcinoma) cell viability (% of control) ([12]; 3.7 nM): 35.1 ± 5.8 % of control | Detroit 562 (pharynx, carcinoma) cell viability (% of control) ([12]; 11.1 nM): 28.4 ± 4.2 % of control | Detroit 562 (pharynx, carcinoma) cell viability (% of control) ([12]; 100 nM): 28.6 ± 13.6 % of control | Detroit 562 (pharynx, carcinoma) cell viability (% of control) ([12]; 300 nM): 33.0 ± 4.8 % of control | EBC-1 (lung, squamous cell carcinoma) cell viability (% of control) ([13]; 3.7 nM): 79.8 ± 4.1 % of control | EBC-1 (lung, squamous cell carcinoma) cell viability (% of control) ([13]; 11.1 nM): 25.6 ± 0.1 % of control | EBC-1 (lung, squamous cell carcinoma) cell viability (% of control) ([13]; 100 nM): 23.2 ± 0.9 % of control | EBC-1 (lung, squamous cell carcinoma) cell viability (% of control) ([13]; 300 nM): 23.8 ± 0.6 % of control | FaDu (pharynx, squamous cell carcinoma) cell viability (% of control) ([14]; 3.7 nM): 80.1 ± 13.3 % of control | FaDu (pharynx, squamous cell carcinoma) cell viability (% of control) ([14]; 11.1 nM): 29.1 ± 5.6 % of control | FaDu (pharynx, squamous cell carcinoma) cell viability (% of control) ([14]; 100 nM): 24.0 ± 3.8 % of control | FaDu (pharynx, squamous cell carcinoma) cell viability (% of control) ([14]; 300 nM): 26.1 ± 4.5 % of control | LNCaP cell viability ([15]; 3.7 nM): 45.6 ± 7.0 % of control | LNCaP cell viability ([15]; 11.1 nM): 17.2 ± 1.9 % of control | LNCaP cell viability ([15]; 100 nM): 13.1 ± 0.8 % of control | LNCaP cell viability ([15]; 300 nM): 13.9 ± 1.0 % of control | Panc-1 (pancreas, carcinoma) cell viability (% of control) ([16]; 3.7 nM): 108.6 ± 7.6 % of control | Panc-1 (pancreas, carcinoma) cell viability (% of control) ([16]; 11.1 nM): 61.1 ± 3.4 % of control | Panc-1 (pancreas, carcinoma) cell viability (% of control) ([16]; 100 nM): 60.0 ± 3.6 % of control | Panc-1 (pancreas, carcinoma) cell viability (% of control) ([16]; 300 nM): 53.5 ± 0.6 % of control | IC50 [17]: 3 to 8 nM | melting point: 190.5 °C
